Results as given in PMC7316778 (Nature Communications, 2020).
“And” between values parts separate entries of the source, which are not always exact repeats. Equal values may be shown once. Read-outs that look alike come from different tables or passages of the source.

Experiments:
FES^WT = molecular target: T1, FES^WT (Homo sapiens, UniProt P07332); assay: PamChip microarray peptide phosphorylation; format: biochemical; settings: Figure 7f, WT + WEL028, n 3
T1 construct: human FES cDNA encoding residues 448–822 or human FER cDNA encoding residues 448–820 was amplified by PCR; made in house; host or cells: E. coli BL21(DE3), co-expressing YopH phosphatase

ALK [1] = molecular target: ALK (Homo sapiens, UniProt Q9UM73); assay: SelectScreen kinase assay
Description: (§1) Selectivity profiling assays were performed by the Invitrogen SelectScreen™ Services. […] The concentration of ATP was selected to be equal to the KM, unless indicated otherwise.

ALK [2] = assay: SelectScreen kinase assay; settings: IC50 on that kinase divided by IC50 on FES^S700C
Description: as §1

BRAF [3] = molecular target: BRAF (Homo sapiens, UniProt P15056); assay: SelectScreen kinase assay
Description: as §1

BRAF [4] = assay: SelectScreen kinase assay; settings: IC50 on that kinase divided by IC50 on FES^S700C
Description: as §1

CDK5/p25 = CDK5/p25 (Homo sapiens, UniProt Q00535); assay: SelectScreen kinase assay; settings: 1 h, 1 μM WEL028, 1 h preincubation
Description: as §1

CSNK2A1 (CK2 alpha 1) = CSNK2A1 (CK2 alpha 1) (Homo sapiens, UniProt P68400); assay: SelectScreen kinase assay
Description: as §1

GSK3B (GSK3 beta) = GSK3B (GSK3 beta) (Homo sapiens, UniProt P49841); assay: SelectScreen kinase assay
Description: as §1

JAK2 = JAK2 (Homo sapiens, UniProt O60674); assay: SelectScreen kinase assay; settings: 1 μM WEL028, 1 h preincubation
Description: as §1

MAP4K3 (GLK) = molecular target: T2, MAP4K3 (GLK) (Homo sapiens, UniProt Q8IVH8); assay: SelectScreen kinase assay
T2 sequence (Q8IVH8 1-894): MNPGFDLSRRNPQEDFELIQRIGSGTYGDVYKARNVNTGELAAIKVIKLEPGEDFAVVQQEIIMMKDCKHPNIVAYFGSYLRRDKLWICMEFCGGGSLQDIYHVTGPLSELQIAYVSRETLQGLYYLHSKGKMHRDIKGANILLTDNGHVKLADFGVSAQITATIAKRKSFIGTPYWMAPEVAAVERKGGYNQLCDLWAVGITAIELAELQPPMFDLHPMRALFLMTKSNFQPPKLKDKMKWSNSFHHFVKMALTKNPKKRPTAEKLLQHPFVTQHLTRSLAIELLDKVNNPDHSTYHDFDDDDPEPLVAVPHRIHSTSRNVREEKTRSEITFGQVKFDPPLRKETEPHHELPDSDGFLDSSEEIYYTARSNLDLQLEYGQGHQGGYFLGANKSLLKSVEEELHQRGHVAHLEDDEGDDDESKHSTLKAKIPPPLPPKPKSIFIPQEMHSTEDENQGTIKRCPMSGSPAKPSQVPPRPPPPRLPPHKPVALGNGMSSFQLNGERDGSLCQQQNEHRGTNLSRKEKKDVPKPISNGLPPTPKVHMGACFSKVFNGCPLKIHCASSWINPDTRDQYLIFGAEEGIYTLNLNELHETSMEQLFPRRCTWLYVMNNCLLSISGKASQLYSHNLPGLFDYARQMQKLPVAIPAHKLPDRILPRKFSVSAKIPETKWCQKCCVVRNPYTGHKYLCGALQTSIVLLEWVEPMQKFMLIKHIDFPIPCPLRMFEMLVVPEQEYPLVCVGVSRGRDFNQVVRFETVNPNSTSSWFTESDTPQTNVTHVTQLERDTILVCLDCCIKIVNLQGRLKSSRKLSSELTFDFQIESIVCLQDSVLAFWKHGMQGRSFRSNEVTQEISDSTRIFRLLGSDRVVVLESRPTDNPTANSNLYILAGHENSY
Description: as §1

[5] = molecular target: PIK3CD/PIK3R1 (p110d/p85a) (Homo sapiens, UniProt O00329); assay: SelectScreen kinase assay; settings: 1 h, 1 μM WEL028, 1 h preincubation
Description: as §1

PKMYT1 = molecular target: T3, PKMYT1 (Homo sapiens, UniProt Q99640); assay: SelectScreen kinase assay
T3 sequence (Q99640 1-499): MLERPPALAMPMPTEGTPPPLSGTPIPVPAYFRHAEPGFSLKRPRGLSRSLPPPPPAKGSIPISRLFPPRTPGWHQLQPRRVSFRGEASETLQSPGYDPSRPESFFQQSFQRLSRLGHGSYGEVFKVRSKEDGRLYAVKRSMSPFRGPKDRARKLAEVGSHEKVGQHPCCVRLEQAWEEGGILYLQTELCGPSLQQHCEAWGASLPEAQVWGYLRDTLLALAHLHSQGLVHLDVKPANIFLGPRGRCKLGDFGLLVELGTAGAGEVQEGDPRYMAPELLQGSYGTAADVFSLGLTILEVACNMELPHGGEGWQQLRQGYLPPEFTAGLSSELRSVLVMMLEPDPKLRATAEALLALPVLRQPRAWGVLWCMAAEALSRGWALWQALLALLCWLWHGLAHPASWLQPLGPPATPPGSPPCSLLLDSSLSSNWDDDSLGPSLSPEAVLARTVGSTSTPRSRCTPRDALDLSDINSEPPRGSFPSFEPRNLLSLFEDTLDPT
Description: as §1

SBK1 = SBK1 (Homo sapiens, UniProt Q52WX2); assay: SelectScreen kinase assay
Description: as §1

SYK = SYK (Homo sapiens, UniProt P43405); assay: SelectScreen kinase assay
Description: as §1

[6] = 1 h, 1 μM WEL028, 1 h preincubation
[7] = 1 µM, ZLYTE, ATP Km app, listed as WEL028, 1 µM

CSNK2A1 (CK2 alpha 1), sequence (P68400 whole entry): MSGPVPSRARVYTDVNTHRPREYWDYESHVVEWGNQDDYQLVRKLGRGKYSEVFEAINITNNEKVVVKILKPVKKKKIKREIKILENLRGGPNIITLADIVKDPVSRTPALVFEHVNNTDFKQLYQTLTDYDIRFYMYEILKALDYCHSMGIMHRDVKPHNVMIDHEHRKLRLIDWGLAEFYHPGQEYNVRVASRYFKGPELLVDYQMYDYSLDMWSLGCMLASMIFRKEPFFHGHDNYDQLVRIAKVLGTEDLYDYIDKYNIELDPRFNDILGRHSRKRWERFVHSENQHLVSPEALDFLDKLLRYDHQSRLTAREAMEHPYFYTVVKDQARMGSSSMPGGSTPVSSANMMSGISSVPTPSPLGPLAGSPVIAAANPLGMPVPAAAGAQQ
T1 sequence (P07332 448-822): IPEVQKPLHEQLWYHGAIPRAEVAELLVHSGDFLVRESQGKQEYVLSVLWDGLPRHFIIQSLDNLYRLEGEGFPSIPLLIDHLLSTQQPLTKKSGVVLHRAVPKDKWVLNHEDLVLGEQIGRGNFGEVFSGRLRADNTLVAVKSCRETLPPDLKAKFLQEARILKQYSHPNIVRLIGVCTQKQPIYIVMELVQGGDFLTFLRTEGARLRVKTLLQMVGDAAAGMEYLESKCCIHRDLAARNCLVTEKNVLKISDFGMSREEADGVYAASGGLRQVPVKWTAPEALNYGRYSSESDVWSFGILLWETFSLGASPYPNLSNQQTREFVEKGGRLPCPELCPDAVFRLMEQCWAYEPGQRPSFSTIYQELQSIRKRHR
BRAF (Homo sapiens, UniProt P15056), sequence (P15056 whole entry, species assumed): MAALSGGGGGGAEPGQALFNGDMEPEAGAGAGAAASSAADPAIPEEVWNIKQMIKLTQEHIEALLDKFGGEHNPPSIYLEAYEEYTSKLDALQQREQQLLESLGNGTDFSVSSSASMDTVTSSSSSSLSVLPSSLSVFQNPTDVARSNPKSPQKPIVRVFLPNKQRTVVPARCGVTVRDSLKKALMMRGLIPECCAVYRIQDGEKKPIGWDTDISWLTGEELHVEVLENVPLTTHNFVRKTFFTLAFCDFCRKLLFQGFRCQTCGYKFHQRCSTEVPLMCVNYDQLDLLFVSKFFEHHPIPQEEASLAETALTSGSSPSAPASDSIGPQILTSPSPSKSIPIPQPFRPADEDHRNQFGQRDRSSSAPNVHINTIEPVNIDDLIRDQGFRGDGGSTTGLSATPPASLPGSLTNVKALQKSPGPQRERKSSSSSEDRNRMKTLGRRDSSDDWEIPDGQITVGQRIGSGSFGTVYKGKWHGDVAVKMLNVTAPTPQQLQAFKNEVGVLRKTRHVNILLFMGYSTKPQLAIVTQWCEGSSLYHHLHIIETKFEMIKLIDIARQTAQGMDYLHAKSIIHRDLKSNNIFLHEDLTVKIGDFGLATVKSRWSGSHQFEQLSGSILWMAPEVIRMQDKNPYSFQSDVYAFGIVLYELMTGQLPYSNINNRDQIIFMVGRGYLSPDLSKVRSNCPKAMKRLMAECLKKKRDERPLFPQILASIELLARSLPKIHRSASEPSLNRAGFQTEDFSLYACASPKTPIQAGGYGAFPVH
ALK (Homo sapiens, UniProt Q9UM73), sequence (Q9UM73 19-1620, species assumed): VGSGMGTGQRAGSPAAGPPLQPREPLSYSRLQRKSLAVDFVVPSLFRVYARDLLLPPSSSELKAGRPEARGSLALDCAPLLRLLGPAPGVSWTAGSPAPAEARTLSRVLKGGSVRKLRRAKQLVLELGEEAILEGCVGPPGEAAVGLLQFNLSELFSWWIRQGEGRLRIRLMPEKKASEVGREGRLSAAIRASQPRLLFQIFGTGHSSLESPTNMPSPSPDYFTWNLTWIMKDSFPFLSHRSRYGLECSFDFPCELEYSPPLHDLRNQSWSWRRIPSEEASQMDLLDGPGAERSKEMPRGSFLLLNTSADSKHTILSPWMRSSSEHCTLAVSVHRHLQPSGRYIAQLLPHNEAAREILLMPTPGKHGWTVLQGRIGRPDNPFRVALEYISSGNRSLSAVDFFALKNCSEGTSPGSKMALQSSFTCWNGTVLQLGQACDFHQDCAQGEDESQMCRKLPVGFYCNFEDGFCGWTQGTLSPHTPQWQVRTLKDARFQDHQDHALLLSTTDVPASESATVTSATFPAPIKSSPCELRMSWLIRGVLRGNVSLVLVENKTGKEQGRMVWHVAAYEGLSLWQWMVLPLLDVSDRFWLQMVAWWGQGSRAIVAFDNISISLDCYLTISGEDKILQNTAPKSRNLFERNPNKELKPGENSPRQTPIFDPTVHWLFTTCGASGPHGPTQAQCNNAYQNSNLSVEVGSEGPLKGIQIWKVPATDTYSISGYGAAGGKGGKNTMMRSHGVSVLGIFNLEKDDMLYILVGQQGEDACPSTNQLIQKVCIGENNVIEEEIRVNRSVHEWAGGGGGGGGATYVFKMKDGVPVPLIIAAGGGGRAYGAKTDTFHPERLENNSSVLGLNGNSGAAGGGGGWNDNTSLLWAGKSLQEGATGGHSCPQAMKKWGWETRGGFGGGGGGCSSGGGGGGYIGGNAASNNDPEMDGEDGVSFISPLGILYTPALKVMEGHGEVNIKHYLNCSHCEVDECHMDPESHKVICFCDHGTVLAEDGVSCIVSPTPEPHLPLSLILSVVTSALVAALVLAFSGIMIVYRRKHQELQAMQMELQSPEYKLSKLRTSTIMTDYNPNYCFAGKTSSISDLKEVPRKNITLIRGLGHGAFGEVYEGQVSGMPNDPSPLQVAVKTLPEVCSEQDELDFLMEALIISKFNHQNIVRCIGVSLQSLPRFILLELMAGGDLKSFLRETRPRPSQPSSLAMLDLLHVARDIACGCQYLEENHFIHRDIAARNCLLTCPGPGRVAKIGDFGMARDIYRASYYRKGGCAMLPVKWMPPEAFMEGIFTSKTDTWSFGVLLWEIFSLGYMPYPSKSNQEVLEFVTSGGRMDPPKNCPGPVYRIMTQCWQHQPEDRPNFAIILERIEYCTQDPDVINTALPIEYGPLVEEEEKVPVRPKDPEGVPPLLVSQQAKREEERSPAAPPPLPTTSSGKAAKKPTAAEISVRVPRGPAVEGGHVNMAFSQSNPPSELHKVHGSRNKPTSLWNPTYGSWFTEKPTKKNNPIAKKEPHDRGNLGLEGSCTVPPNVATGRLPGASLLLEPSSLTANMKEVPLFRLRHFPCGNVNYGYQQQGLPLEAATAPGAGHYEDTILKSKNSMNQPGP
SBK1, sequence (Q52WX2 whole entry): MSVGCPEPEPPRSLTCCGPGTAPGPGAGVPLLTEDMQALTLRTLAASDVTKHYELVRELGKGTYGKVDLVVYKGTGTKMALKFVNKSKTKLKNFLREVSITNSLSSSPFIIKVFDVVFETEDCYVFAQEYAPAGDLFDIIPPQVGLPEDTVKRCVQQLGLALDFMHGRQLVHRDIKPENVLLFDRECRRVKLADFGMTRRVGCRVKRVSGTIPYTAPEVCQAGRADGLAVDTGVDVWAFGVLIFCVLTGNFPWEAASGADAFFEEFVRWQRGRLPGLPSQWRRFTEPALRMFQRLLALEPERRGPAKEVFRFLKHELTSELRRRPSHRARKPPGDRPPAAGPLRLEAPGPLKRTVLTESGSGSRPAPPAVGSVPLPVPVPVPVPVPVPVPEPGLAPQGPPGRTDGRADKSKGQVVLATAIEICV
GSK3B (GSK3 beta), sequence (P49841 whole entry): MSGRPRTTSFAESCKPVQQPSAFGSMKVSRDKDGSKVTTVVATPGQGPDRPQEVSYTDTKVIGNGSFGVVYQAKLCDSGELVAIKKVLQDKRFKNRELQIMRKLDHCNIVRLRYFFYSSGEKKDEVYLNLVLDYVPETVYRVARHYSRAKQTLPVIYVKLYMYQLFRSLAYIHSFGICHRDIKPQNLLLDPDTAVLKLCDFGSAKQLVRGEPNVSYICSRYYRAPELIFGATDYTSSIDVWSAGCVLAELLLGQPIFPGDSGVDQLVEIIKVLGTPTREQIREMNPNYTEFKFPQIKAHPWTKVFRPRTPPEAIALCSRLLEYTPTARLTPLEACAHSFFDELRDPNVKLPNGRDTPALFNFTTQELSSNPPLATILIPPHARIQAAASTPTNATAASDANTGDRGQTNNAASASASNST
CDK5/p25, sequence (Q00535 whole entry): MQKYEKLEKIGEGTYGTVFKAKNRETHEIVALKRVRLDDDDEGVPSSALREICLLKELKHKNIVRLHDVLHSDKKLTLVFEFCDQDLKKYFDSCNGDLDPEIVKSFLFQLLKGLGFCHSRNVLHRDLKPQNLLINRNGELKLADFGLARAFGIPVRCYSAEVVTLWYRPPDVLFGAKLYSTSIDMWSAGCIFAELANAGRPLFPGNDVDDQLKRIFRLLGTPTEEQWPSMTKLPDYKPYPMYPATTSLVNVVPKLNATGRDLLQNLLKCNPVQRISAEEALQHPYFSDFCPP
CDK5/p25, sequence (Q15078 99-307 partner limits assumed): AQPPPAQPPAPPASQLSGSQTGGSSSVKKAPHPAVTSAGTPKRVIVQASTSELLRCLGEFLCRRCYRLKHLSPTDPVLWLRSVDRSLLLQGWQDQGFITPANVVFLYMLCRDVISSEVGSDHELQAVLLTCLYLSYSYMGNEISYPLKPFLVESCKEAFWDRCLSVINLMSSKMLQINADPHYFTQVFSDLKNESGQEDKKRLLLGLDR

C#CCOc1ccc(Nc2ncc(Cl)c(Nc3ccccc3NC(=O)C=C)n2)c(OC)c1 [Compound 6]
Mean signal, time course (FES^WT; time 0 min): -37.0 | Mean signal, time course (FES^WT; time 5 min): 24.0 | Mean signal, time course (FES^WT; time 10 min): 80.0 | Mean signal, time course (FES^WT; time 15 min): 138.0 | Mean signal, time course (FES^WT; time 20 min): 193.0 | Mean signal, time course (FES^WT; time 25 min): 246.0 | Mean signal, time course (FES^WT; time 30 min): 301.0 | Mean signal, time course (FES^WT; time 35 min): 361.0 | Mean signal, time course (FES^WT; time 40 min): 414.0 | Mean signal, time course (FES^WT; time 45 min): 472.0 | Mean signal, time course (FES^WT; time 50 min): 524.0 | Mean signal, time course (FES^WT; time 55 min): 585.0 | Mean signal, time course (FES^WT; time 60 min): 641.0 | IC50 (ALK [1]): 126 nM | inhibition at 1 µM (ALK [1]; [6]): 89% | inhibition at 1 µM (ALK [1]; read-out: Inhibition at 1 µM (%), ALK, 1 µM, ZLYTE, ATP Km app): 90% | Apparent fold selectivity (ALK [2]): 28 fold | IC50 (BRAF [3]): 100 nM | inhibition at 1 µM (BRAF [3]; [6]): 94% | inhibition at 10 µM (BRAF [3]; 1 h, log[inhibitor] (M) -5.00, ZLYTE, ATP 100): 98% | inhibition at 3.311 µM (BRAF [3]; 1 h, log[inhibitor] (M) -5.48, ZLYTE, ATP 100): 100% | inhibition at 1.122 µM (BRAF [3]; 1 h, log[inhibitor] (M) -5.95, ZLYTE, ATP 100): 96% | inhibition at 0.3715 µM (BRAF [3]; 1 h, log[inhibitor] (M) -6.43, ZLYTE, ATP 100): 65% | inhibition at 0.123 µM (BRAF [3]; 1 h, log[inhibitor] (M) -6.91, ZLYTE, ATP 100): 53% | inhibition at 0.04074 µM (BRAF [3]; 1 h, log[inhibitor] (M) -7.39, ZLYTE, ATP 100): 28% | inhibition at 0.0138 µM (BRAF [3]; 1 h, log[inhibitor] (M) -7.86, ZLYTE, ATP 100): 15% | inhibition at 0.001514 µM (BRAF [3]; 1 h, log[inhibitor] (M) -8.82, ZLYTE, ATP 100): 3% | Inhibition at 1 µM (%) (BRAF [3]; BRAF, 1 µM, ZLYTE, ATP 100, listed as WEL028, 1 µM): 97% | inhibition at 1 µM (BRAF [3]; read-out: Inhibition at 1 µM (%), BRAF, 1 µM, ZLYTE, ATP 100): 90% | Apparent fold selectivity (BRAF [4]): 25 fold | inhibition at 1 µM (CDK5/p25): 2% | inhibition at 1 µM (CSNK2A1 (CK2 alpha 1); [6]): 4% | Inhibition at 1 µM (%) (CSNK2A1 (CK2 alpha 1); CSNK2A1 (CK2 alpha 1), 1 µM, ZLYTE, ATP Km app, listed as WEL028, 1 µM): 9% and 0% | inhibition at 1 µM (GSK3B (GSK3 beta); [6]): 4% | inhibition at 1 µM (GSK3B (GSK3 beta); read-out: Inhibition at 1 µM (%), GSK3B (GSK3 beta), 1 µM, ZLYTE, ATP Km app): 5% | Inhibition (%) (JAK2): 0% | Inhibition (%) (MAP4K3 (GLK); 1 μM WEL028, 1 h preincubation): 3% | Inhibition at 1 µM (%) (MAP4K3 (GLK); MAP4K3 (GLK), 1 µM, LanthaScreen Binding, listed as WEL028, 1 µM): 2% | inhibition at 1 µM (MAP4K3 (GLK); read-out: Inhibition at 1 µM (%), MAP4K3 (GLK), 1 µM, LanthaScreen Binding): 4% | inhibition at 1 µM [5]: 8% | Inhibition (%) (PKMYT1; 1 μM WEL028, 1 h preincubation): 13% | Inhibition at 1 µM (%) (PKMYT1; PKMYT1, 1 µM, LanthaScreen Binding, listed as WEL028, 1 µM): 9% | inhibition at 1 µM (PKMYT1; read-out: Inhibition at 1 µM (%), PKMYT1, 1 µM, LanthaScreen Binding): 17% | Inhibition at 1 µM (%) (SBK1; [7]): 1% and 8% | inhibition at 1 µM (SBK1; [6]): 5% | Inhibition (%) (SYK; 1 μM WEL028, 1 h preincubation): did not inhibit | Inhibition at 1 µM (%) (SYK; [7]): 1% and 5%
